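The compound was tested at five concentrations on cells cultured in 96-well plates, with a 48-hour exposure period. GI50: concentration for 50% inhibition of growth.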 The source made the active and inactive calls. Rule as the data show it: active = GI50 up to about 1.1 µM and inactive = higher.
How the values were obtained:
Assay in all cases: growth of human tumour cells (NCI), 48 h
RXF 631 = tested on: RXF 631
DLD-1 = tested on: DLD-1
M19-MEL = tested on: M19-MEL
HOP-18 = tested on: HOP-18
DMS-114 = tested on: DMS-114
DMS-273 = tested on: DMS-273
LXFL 529 = tested on: LXFL 529
KM-20L2 = tested on: KM-20L2
SNB-78 = tested on: SNB-78

Measured: GI50

[O-][S+]1c2ccccc2N=C(c2ccc3ccccc3c2)CC1C1=CC=CCC1 (configuration not stated)
inactive: RXF 631 17.2 µM | DLD-1 12.9 µM | M19-MEL 17.1 µM | HOP-18 35.8 µM | DMS-114 15.2 µM | DMS-273 19.2 µM | LXFL 529 14.8 µM | KM-20L2 19.5 µM

CC(C)(C)N/N=C(\C(=O)Nc1cccc(Cl)c1)C1C(=O)Nc2ccccc2[S+]1[O-] (configuration not stated)
inactive: RXF 631 > 100 µM | DLD-1 > 100 µM | M19-MEL > 100 µM | HOP-18 > 100 µM | DMS-114 > 100 µM | DMS-273 > 100 µM | LXFL 529 > 100 µM | KM-20L2 > 100 µM

COc1ccc(-c2c(N)[n+]([O-])c3cc(C)c(C)cc3[n+]2[O-])cc1OC
inactive: RXF 631 20.4 µM | DLD-1 85.7 µM | M19-MEL 72.3 µM | HOP-18 28.8 µM | DMS-114 25.5 µM | DMS-273 99.3 µM | LXFL 529 58.5 µM | SNB-78 > 100 µM | KM-20L2 54.3 µM

C=C(C)C(=O)/N=C(\N)NC#N
inactive: RXF 631 > 100 µM | DLD-1 68.9 µM | M19-MEL 23.6 µM | HOP-18 > 41.8 µM | DMS-114 30.5 µM | DMS-273 44 µM | LXFL 529 63.4 µM | SNB-78 48.3 µM | KM-20L2 105 µM

Fc1ccc2c(c1)cc1ccc3cccc4ccc2c1c34
inactive: RXF 631 > 100 µM | DLD-1 > 100 µM | M19-MEL > 100 µM | HOP-18 > 100 µM | DMS-114 > 100 µM | DMS-273 > 100 µM | LXFL 529 > 100 µM | SNB-78 > 100 µM | KM-20L2 > 100 µM

[O-][n+]1c(-c2ccccc2)oc2ccccc21
inactive: RXF 631 47 µM | DLD-1 7.82 µM | M19-MEL 1.89 µM | HOP-18 6.44 µM | DMS-114 3.48 µM | DMS-273 12.6 µM | LXFL 529 9.04 µM | SNB-78 41.4 µM | KM-20L2 21.1 µM

COc1ccc2ccc3c(c2c1)CN1CCc2cc(OC)c(OC)cc2C1C3 (configuration not stated)
inactive: RXF 631 > 100 µM | DLD-1 > 100 µM | HOP-18 > 100 µM | DMS-114 > 100 µM | DMS-273 > 100 µM | LXFL 529 66.2 µM | SNB-78 > 100 µM | KM-20L2 > 100 µM

N#Cc1cccc(N2C(=O)C3C4C=CC(C3C2=O)C2C(=O)N(c3cccc(C#N)c3)C(=O)C42)c1 (configuration not stated)
inactive: RXF 631 24.7 µM | DLD-1 > 46.5 µM | HOP-18 > 65.2 µM | DMS-114 16.3 µM | DMS-273 15.2 µM | LXFL 529 > 46.5 µM | SNB-78 12.7 µM | KM-20L2 > 100 µM

O=c1/c(=C/c2ccccc2[N+](=O)[O-])sc2nnc(-c3cccnc3)n12
inactive: RXF 631 > 100 µM | DLD-1 > 100 µM | M19-MEL > 100 µM | HOP-18 > 100 µM | DMS-114 > 100 µM | DMS-273 > 100 µM | LXFL 529 > 100 µM | SNB-78 > 100 µM | KM-20L2 > 100 µM
